Measured values as given in article PMC6429262, “Design and Synthesis of Novel Anti-Proliferative Emodin Derivatives and Studies on their Cell Cycle Arrest, Apoptosis Pathway and Migration” (Molecules, 2019).

Key:
HepG2 cells = experiment: CellTiter-Glo Luminescent Cell Viability Assay, HepG2; type: cell-based, human; settings: HepG2 cells, 48 h, mean of three independent experiments
Description: (§1) The in vitro anti-proliferative activities of all the novel synthesized compounds were evaluated against HepG2 cells and MCF-7 cells by CellTiter-Glo® Luminescent Cell Viability Assay, using paclitaxel (a clinically used drug) as a positive control. Emodin (1) and compound 2 were also included for comparison.
(§2) HepG2 cells and MCF-7 cells were purchased from American Type Culture Collection (ATCC, Manassas, VA, USA). Cells were cultured in T75 flask (430641, Corning, New York, NY, USA), supplemented with high-glucose DMEM medium (Dulbecco’s modified Eagle’s medium, 11965-092, Gibco, New York, NY, USA) containing 10% Fetal bovine serum (FBS) and 1% penicillin (100 units/mL)-streptomycin (100 µg/mL) in a humidified incubator at 37 °C under 5% CO2 and 95% relative humidity (RH) atmosphere. The cells were harvested for metabolomics experiments using cell scrapers.
(§3) HepG2 cells and MCF-7 cells in 40 µL DMEM supplemented with 10% FBS were seeded at a density of 500 cells/well in 384-well cell culture plate (3570, Corning), respectively. After 24 h, the medium was substituted with fresh medium containing various sample solutions in DMSO (0.5%, v/v) at a dose range of 0.14–100 µM with 3-fold serial dilutions, and cells were cultured for another 48 h. Cells were cultured in medium without samples but 0.5% DMSO served as a control. All measurements were determined in triplicate for each treatment. After the sample treatment for 48 h, 20 µL CellTiter-Glo (G7573, Promega, Fitchburg, WI, USA) was added to each well containing cells and the contents were mixed for 2 min on an orbital shaker to induce cell lysis. The plates were then incubated at room temperature for 20 min to stabilize the luminescent signal. The luminescence was recorded on an Envision 2014 (Perkin Elmer, Waltham, MA, UAS). The IC50 values represented the samples’ concentrations required to inhibit 50% of cell proliferation and were calculated from a calibration curve by linear regression using GraphPad Prism 7.0 software (GraphPad Software, San Diego, CA, USA).

MCF-7 cells = experiment: CellTiter-Glo Luminescent Cell Viability Assay, MCF-7; type: cell-based, human; settings: MCF-7 cells, 48 h, mean of three independent experiments
Description: as §1, §2, §3

L02 cells = experiment: Cytotoxic activity against human normal liver cells (L02); type: cell-based; settings: Homo sapiens, L02, human normal liver L02 cells

Row | Compound | IC50 (HepG2 cells; Homo sapiens, HepG2, 48 h) [µM] | IC50 (MCF-7 cells; Homo sapiens, MCF7, 48 h) [µM] | IC50 (L02 cells) [µM] | IC50 (HepG2 cells) [µM] | IC50 (MCF-7 cells) [µM]
1 | Cc1cc(O)c2c(c1)C(=O)c1cc(OCCOC(=O)[C@@H](C)N)cc(O)c1C2=O [Compound 3b, (R)-1-(2-(4,5-Dihydroxy-7-methyl-9,10-dioxo-9,10-dihydroanthracen-2-yloxy)ethoxy)-1-oxopropan-2-aminium 2,2,2-trifluoroacetate] | 8.22 ± 0.13 | 8.99 ± 0.64 | 33.6 ± 0.36 | – | –
2 | Cc1cc(O)c2c(c1)C(=O)c1cc(OCCOC(=O)[C@H](C)N)cc(O)c1C2=O [Compound 3c, (S)-1-(2-(4,5-Dihydroxy-7-methyl-9,10-dioxo-9,10-dihydroanthracen-2-yloxy)ethoxy)-1-oxopropan-2-aminium 2,2,2-trifluoroacetate] | 9.52 ± 0.22 | 10.2 ± 0.96 | 37.3 ± 0.78 | – | –
3 | Cc1cc(O)c2c(c1)C(=O)c1cc(OCCOC(=O)C3(N)CCC3)cc(O)c1C2=O [Compound 3l, 1-((2-(4,5-Dihydroxy-7-methyl-9,10-dioxo-9,10-dihydroanthracen-2-yloxy)ethoxy)carbonyl)cyclobutan-aminium 2,2,2-trifluoroacetate] | 67.49 ± 0.56 | > 100 | – | – | –
4 | Cc1cc(O)c2c(c1)C(=O)c1cc(OCCOC(=O)[C@@H](N)c3ccccc3)cc(O)c1C2=O [Compound 3r, (S)-2-(2-(4,5-Dihydroxy-7-methyl-9,10-dioxo-9,10-dihydroanthracen-2-yloxy)ethoxy)-2-oxo-1-phenyl-ethanaminium 2,2,2-trifluoroacetate] | 19.3 ± 1.08 | 25.7 ± 0.61 | – | – | –
5 | CCC(C)[C@H](N)C(=O)OCCOc1cc(O)c2c(c1)C(=O)c1cc(C)cc(O)c1C2=O (stereo partly drawn) [Compound 3h, (2S)-1-(2-(4,5-dihydroxy-7-methyl-9,10-dioxo-9,10-dihydroanthracen-2-yloxy)ethoxy)-3-methyl-1-oxo-pentan-2-aminium 2,2,2-trifluoroacetate] | 14.4 ± 0.27 | 12.8 ± 1.05 | – | – | –
6 | Cc1cc(O)c2c(c1)C(=O)c1cc(OCCOC(=O)C3(N)CCCC3)cc(O)c1C2=O [Compound 3n, 1-((2-(4,5-Dihydroxy-7-methyl-9,10-dioxo-9,10-dihydroanthracen-2-yloxy)ethoxy)carbonyl)cyclopentan-aminium 2,2,2-trifluoroacetate] | 12.5 ± 0.59 | 23.5 ± 1.93 | – | 17.5 ± 0.59 | 18.5 ± 1.93
7 | Cc1cc(O)c2c(c1)C(=O)c1cc(OCCOC(=O)[C@H](N)Cc3ccccc3)cc(O)c1C2=O [Compound 3w, (R)-1-(2-(4,5-Dihydroxy-7-methyl-9,10-dioxo-9,10-dihydroanthracen-2-yloxy)ethoxy)-1-oxo-3-phenyl-propan-2-aminium 2,2,2-trifluoroacetate] | 31.5 ± 2.72 | 42.4 ± 1.16 | – | – | –
8 | (S)-1-(2-(4,5-Dihydroxy-7-methyl-9,10-dioxo-9,10-dihydroanthracen-2-yloxy)ethoxy)-3-(4-hydroxyphenyl)-1-oxopropan-2-aminium 2,2,2-trifluoroacetate [Compound 3z] | – | – | – | 14.1 ± 1.22 | 17.3 ± 0.26
9 | Cc1cc(O)c2c(c1)C(=O)c1cc(OCCOC(=O)[C@@H](N)C(C)C)cc(O)c1C2=O [Compound 3f, (S)-1-(2-(4,5-Dihydroxy-7-methyl-9,10-dioxo-9,10-dihydroanthracen-2-yloxy)ethoxy)-3-methyl-1-oxobutan-2-aminium 2,2,2-trifluoroacetate] | 12.4 ± 0.35 | 16 ± 0.51 | – | – | –
10 | Cc1cc(O)c2c(c1)C(=O)c1cc(OCCOC(=O)[C@H]3CCCN3)cc(O)c1C2=O [Compound 3o, (R)-2-((2-(4,5-Dihydroxy-7-methyl-9,10-dioxo-9,10-dihydroanthracen-2-yloxy)ethoxy)carbonyl)-pyrrolidinium 2,2,2-trifluoroacetate] | 17.6 ± 0.43 | 17.6 ± 0.29 | – | – | –
11 | Cc1cc(O)c2c(c1)C(=O)c1cc(OCCCCOC(=O)[C@H](C)N)cc(O)c1C2=O [Compound 7d, (S)-1-(4-(4,5-Dihydroxy-7-methyl-9,10-dioxo-9,10-dihydroanthracen-2-yloxy)butoxy)-1-oxopropan-2-aminium 2,2,2-trifluoroacetate] | 11 ± 1.47 | 14.9 ± 0.57 | – | – | –
12 | Cc1cc(O)c2c(c1)C(=O)c1cc(OCCOC(=O)[C@@H](N)c3ccc(O)cc3)cc(O)c1C2=O [Compound 3t, (S)-2-(2-(4,5-Dihydroxy-7-methyl-9,10-dioxo-9,10-dihydroanthracen-2-yloxy)ethoxy)-1-(4-hydroxyphenyl)-2-oxoethanaminium 2,2,2-trifluoroacetate] | 26.1 ± 1.44 | 39.6 ± 1.97 | – | – | –
13 | Cc1cc(O)c2c(c1)C(=O)c1cc(OCCOC(=O)[C@H](N)C(C)C)cc(O)c1C2=O [Compound 3e, (R)-1-(2-(4,5-Dihydroxy-7-methyl-9,10-dioxo-9,10-dihydroanthracen-2-yloxy)ethoxy)-3-methyl-1-oxobutan-2-aminium 2,2,2-trifluoroacetate] | 14.4 ± 1.09 | 14.2 ± 0.23 | – | – | –
14 | Cc1cc(O)c2c(c1)C(=O)c1cc(OCCOC(=O)[C@@H](N)CO)cc(O)c1C2=O [Compound 3d, (S)-1-(2-(4,5-Dihydroxy-7-methyl-9,10-dioxo-9,10-dihydroanthracen-2-yloxy)ethoxy)-3-hydroxy-1-oxopropan-2-aminium 2,2,2-trifluoroacetate] | 12 ± 1.19 | 34 ± 1.98 | – | – | –
15 | Cc1cc(O)c2c(c1)C(=O)c1cc(OCCOC(=O)CN)cc(O)c1C2=O [Compound 3a, 2-(2-(4,5-Dihydroxy-7-methyl-9,10-dioxo-9,10-dihydroanthracen-2-yloxy)ethoxy)-2-oxoethanaminium 2,2,2-trifluoroacetate] | 22.7 ± 0.78 | 66.9 ± 1.65 | – | – | –

Now from value to compound, other results behind:

Row | IC50 (HepG2 cells; Homo sapiens, HepG2, 48 h) [µM] | IC50 (MCF-7 cells; Homo sapiens, MCF7, 48 h) [µM] | Compound | IC50 (L02 cells) [µM] | IC50 (HepG2 cells) [µM] | IC50 (MCF-7 cells) [µM]
16 | 15.2 ± 0.66 | 12.6 ± 0.46 | Cc1cc(O)c2c(c1)C(=O)c1cc(OCCOCCOC(=O)[C@@H](C)N)cc(O)c1C2=O [Compound 7g, (R)-1-(2-(2-(4,5-Dihydroxy-7-methyl-9,10-dioxo-9,10-dihydroanthracen-2-yloxy)ethoxy)ethoxy)-1-oxo-propan-2-aminium 2,2,2-trifluoroacetate] | – | – | –
17 | 6.47 ± 0.21 | 6.47 ± 0.18 | Cc1cc(O)c2c(c1)C(=O)c1cc(OCCCOC(=O)[C@H](C)N)cc(O)c1C2=O [Compound 7b, (S)-1-(3-(4,5-Dihydroxy-7-methyl-9,10-dioxo-9,10-dihydroanthracen-2-yloxy)propoxy)-1-oxopropan-2-aminium 2,2,2-trifluoroacetate] | – | – | –
18 | 18.6 ± 2.07 | 16.2 ± 0.67 | Cc1cc(O)c2c(c1)C(=O)c1cc(OCCOC(=O)[C@H](C)N(C)C)cc(O)c1C2=O [Compound 5b, (S)-1-(2-(4,5-Dihydroxy-7-methyl-9,10-dioxo-9,10-dihydroanthracen-2-yloxy)ethoxy)-N,N-dimethyl-1-oxo-propan-2-aminium 2,2,2-trifluoroacetate] | – | – | –
19 | 18.1 ± 2.79 | 25.2 ± 1.92 | Cc1cc(O)c2c(c1)C(=O)c1cc(OCCOC(=O)[C@@H](C)N(C)C)cc(O)c1C2=O [Compound 5a, (R)-1-(2-(4,5-Dihydroxy-7-methyl-9,10-dioxo-9,10-dihydroanthracen-2-yloxy)ethoxy)-N,N-dimethyl-1-oxo-propan-2-aminium 2,2,2-trifluoroacetate] | – | – | –
20 | 60.6 ± 4.26 | 41.8 ± 2.24 | Cc1cc(O)c2c(c1)C(=O)c1cc(OCCOCCOCCOCCOC(=O)[C@H](C)N)cc(O)c1C2=O [Compound 7l, (S)-1-(4,5-Dihydroxy-7-methyl-9,10-dioxo-9,10-dihydroanthracen-2-yloxy)-13-oxo-3,6,9,12-tetraoxa-pentadecan-14-aminium 2,2,2-trifluoroacetate] | – | – | –
21 | 10.6 ± 0.97 | 15.8 ± 1.45 | Cc1cc(O)c2c(c1)C(=O)c1cc(OCCCCCOC(=O)[C@H](C)N)cc(O)c1C2=O [Compound 7f, (S)-1-(5-(4,5-Dihydroxy-7-methyl-9,10-dioxo-9,10-dihydroanthracen-2-yloxy)pentyloxy)-1-oxopropan-2-aminium 2,2,2-trifluoroacetate] | 24.3 ± 0.68 | – | –
22 | 13.7 ± 0.89 | 23.2 ± 0.33 | CN[C@H](C)C(=O)OCCOc1cc(O)c2c(c1)C(=O)c1cc(C)cc(O)c1C2=O [Compound 4a, (R)-1-(2-(4,5-Dihydroxy-7-methyl-9,10-dioxo-9,10-dihydroanthracen-2-yloxy)ethoxy)-N-methyl-1-oxo-propan-2-aminium 2,2,2-trifluoroacetate] | – | – | –
23 | 8.58 ± 0.77 | 9.11 ± 0.67 | Cc1cc(O)c2c(c1)C(=O)c1cc(OCCCCCOC(=O)[C@@H](C)N)cc(O)c1C2=O [Compound 7e, (R)-1-(5-(4,5-Dihydroxy-7-methyl-9,10-dioxo-9,10-dihydroanthracen-2-yloxy)pentyloxy)-1-oxopropan-2-aminium 2,2,2-trifluoroacetate] | 27.7 ± 0.54 | – | –
